Data on nine compounds can be found in patent US20230373972A1, “PIPERAZINE DERIVATIVE, PREPARATION METHOD THEREFOR AND USE THEREOF” (Zhejiang Hisun Pharmaceutical Co., Ltd., priority 2020, published 2023).

Series [1] concerns the target T1, Native human Factor XIa protease (Homo sapiens, UniProt P03951).
T1 construct: The Native human Factor XIa protease was purchased from Abcam; purchased Abcam ab62411
Put plainly: Inhibition of activity of Factor XIa protease (chromogenic substrate S-2366). Type of series: biochemical. As to conditions: S-2366 1 mM, 37° C. 10 minutes, absorption at 405 nm. The essentials: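 Native human Factor XIa (final […]) in 100 mM Tris-HCl, 200 mM NaCl, 0.02% Tween 20, pH 7.4, preincubated with compound 5 min on ice; 1 mM S-2366 added, 10 min at 37° C. Absorbance at 405 nm versus 0.1% DMSO control; IC50 by nonlinear regression, compound 10,000 nM to […] final.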

For series [2], the system named is human plasma. Put plainly: In-vitro anticoagulation on human plasma (APTT kit, coagulation time). As to conditions: concentration of the compound when the coagulation time (APTT) was prolonged twice.
The nature of series [3]: Pharmacokinetics in SD rat. The series is classed as in vivo. As to conditions: male, plasma; for Cmax: read-out: Blood concentration Cmax; for AUC(0-t): read-out: Curve area AUC0-t; for half-life: read-out: Half-life period T1/2(h) (converted); for bioavailability: intragastric 10 mg/kg vs injection 1 mg/kg, read-out: Bioavailability F(%). As for the experimental part:
Taking a SD rat as a test animal, the SD rat was administrated with the compound of the present invention by intravenous injection and/or intragastric administration, and drug concentrations in plasma at different times were determined by a IC/MS/MS method to study pharmacokinetic characteristics of the compound of the present invention in the SD rat.
SD rats, male, 195 g to 235 g, 6 weeks old to 8 weeks old, purchased from Shanghai JieSiJie Laboratory Animal Co., Ltd.
Preparation of drug administrated by intravenous injection: a proper amount of compound to be tested was added to a proper amount of DMAC; (30% Soltol HS 15): Saline=10%: 10%: 80% (v/v/v), and shaken in a vortex manner, so as to prepare a final solution with a concentration of 0.5 mg/mL.
Preparation of drug administrated by intragastric administration: a proper amount of compound to be tested was added to a proper amount of DMAC: (30% Soltol HS 15): Saline=10%: 10%: 80% (v/v/v), and shaken in a vortex manner, so as to prepare a final solution with a concentration of 1 mg/mL.
SD rats were divided into an intravenous injection group of the compound to be tested (3 rats/group) and an intragastric administration group (3 rats/group) of the compound to be tested.
Intravenous injection group: the drug was administrated by dorsalis pedis vein injection (according to a dosage of 1 mg/kg and a volume of 2 mL/kg) without fasting.
Intragastric administration group: the drug was administrated by intragastric administration (according to a dosage of 10 mg/kg and a volume of 10 mL/kg) after fasting overnight, and food was taken 4 hours after administration.
Intravenous injection group: about 150 μL of blood was collected into an EDTA-K2 anticoagulant tube through a jugular vein 0.083 hour, 0.25 hour, 0.5 hour, 1 hour, 2 hours, 4 hours, 8 hours and 24 hours after administration.
Intragastric administration group; about 150 μL of blood was collected into an EDTA-K2 anticoagulant tube through a jugular vein 0.25 how, 0.5 hour, 1 hour, 2 hours, 4 hours, 8 hours and 24 hours after administration.
The blood sample was stored in wet ice first, and plasma was centrifugally separated within 15 minutes after sampling (centrifugation conditions: 2,000 g, 4° C., 5 minutes). The collected upper plasma was stored at −70° C. before analysis.
Contents of the compound to be tested in rat plasma after intravenous injection and intragastric administration were determined by LC-MS/MS.

[4] abbreviates: po, intragastric administration 10 mg/kg.
Setting [5] is: iv, injection administration 1 mg/kg.

Like-named read-outs stand apart in the source and are kept apart here.

T1 sequence (P03951 388-625 limits assumed): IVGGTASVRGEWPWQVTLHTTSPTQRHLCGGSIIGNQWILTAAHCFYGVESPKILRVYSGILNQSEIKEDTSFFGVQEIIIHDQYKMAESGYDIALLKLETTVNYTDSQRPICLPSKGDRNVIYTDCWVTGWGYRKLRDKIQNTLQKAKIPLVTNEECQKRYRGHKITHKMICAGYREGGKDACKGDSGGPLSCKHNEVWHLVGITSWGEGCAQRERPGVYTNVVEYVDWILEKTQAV
T1 sequence (P03951 19-387 partner limits assumed): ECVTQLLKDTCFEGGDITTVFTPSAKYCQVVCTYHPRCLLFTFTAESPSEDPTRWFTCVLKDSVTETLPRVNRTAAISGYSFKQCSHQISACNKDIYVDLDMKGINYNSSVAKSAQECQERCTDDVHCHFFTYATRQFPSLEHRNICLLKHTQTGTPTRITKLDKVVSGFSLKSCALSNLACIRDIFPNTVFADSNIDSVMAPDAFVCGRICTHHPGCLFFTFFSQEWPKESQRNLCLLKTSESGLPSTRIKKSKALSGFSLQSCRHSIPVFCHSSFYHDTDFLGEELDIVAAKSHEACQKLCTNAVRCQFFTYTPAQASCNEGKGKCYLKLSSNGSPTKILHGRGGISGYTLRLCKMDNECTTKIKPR

Consider `NC(=O)c1ccc(NC(=O)C(Cc2ccccc2)N2CC(=O)N(c3cc(Cl)ccc3-n3cc(Cl)nn3)CC2=O)cc1F` (stereo not drawn) [Example 36, 4-(2-(4-(5-chloro-2-(4-chloro-1H-1,2,3-triazol-1-yl)phenyl)-2,5-dioxopiperazin-1-yl)-3-phenylpropanamido)-2-fluorobenzamide], for which the midpoint of inhibition in series [1], the IC50, lay at 27.1 nM. For the same compound, the “CT2” value in series [2] stood at 15.9 µM. Further, in series [3] (setting [4]), the Cmax came to 798 ± 868 ng/mL, the AUC(0-t) turned out to be 2190 ± 2750 ng·h/mL and the half-life was 1.15 ± 0.0495 h.
On to `Cn1cc2cc(NC(=O)C(CC3CCCCO3)N3CC(=O)N(c4cc(Cl)ccc4-n4cc(Cl)nn4)CC3=O)ccc2n1` (stereo not drawn) [Example 117, 2-(4-(5-Chloro-2-(4-chloro-1H-1,2,3-triazol-1-yl)phenyl)-2,5-dioxopiperazin-1-yl)-N-(2-methyl-2H-indazol-5-yl)-3-(tetrahydro-2H-pyran-2-yl)propanamide], for which the “CT2” value in series [2] amounted to 6.3 µM. Moreover, in series [3] (setting [4]), the Cmax turned out to be 2220 ± 552 ng/mL, the AUC(0-t) came out at 3940 ± 984 ng·h/mL and the half-life was 0.735 ± 0.0242 h.
On to `Cn1cc2cc(NC(=O)C(Cc3ccc(F)cc3)N3CC(=O)N(c4cc(Cl)ccc4-n4cc(Cl)nn4)CC3=O)ccc2n1` (stereo in doubt) [Example 99, (R)-2-(4-(5-chloro-2-(4-chloro-1H-1,2,3-triazol-1-yl)phenyl)-2,5-dioxopiperazin-1-yl)-3-(4-fluorophenyl)-N-(2-methyl-2H-indazol-5-yl)propanamide], for which, in series [1], it took 24.4 nM to reach half-maximal inhibition (IC50). Besides, the “CT2” value in series [2] was 6.9 µM. Besides, in series [3] (setting [5]), the AUC(0-t) worked out at 326 ± 61.2 ng·h/mL and the half-life is 0.595 ± 0.222 h. In series [3] (po), the bioavailability is 149 ± 48.1%. In series [3] (setting [4]), the Cmax turned out to be 1100 ± 498 ng/mL, the AUC(0-t) came out at 4850 ± 1570 ng·h/mL and the half-life was 0.994 h.
Take `Cn1cc2cc(NC(=O)C(Cc3ccccc3)N3CC(=O)N(c4cc(Cl)ccc4-n4cc(Cl)nn4)CC3=O)ccc2n1` (stereo not drawn) [Example 25, 2-(4(5-chloro-2-(4-chloro-1H-1,2,3-triazol-1-yl)phenyl)-2,5-dioxopiperazin-1-yl)-N-(2-methyl-2H-indazol-5-yl)-3-phenylpropanamide]: half-maximal inhibition in series [1] (IC50) required 14.8 nM. In series [2], the “CT2” value was 6.6 µM. Moreover, in series [3] (setting [5]), the AUC(0-t) came out at 431 ± 117 ng·h/mL and the half-life is 0.818 ± 0.37 h. Further, in series [3] (po), the bioavailability came out at 80.4 ± 28.5%. Further, in series [3] (setting [4]), the Cmax came to 1390 ± 521 ng/mL, the AUC(0-t) worked out at 3460 ± 1230 ng·h/mL and the half-life was 0.895 ± 0.0751 h.
As for `O=C(Nc1ccc2nn(C(F)F)cc2c1)C(Cc1ccccc1)N1CC(=O)N(c2cc(Cl)ccc2-n2cc(Cl)nn2)CC1=O` (stereo not drawn) [Example 45, 2-(4-(5-Chloro-2-(4-chloro-1H-1,2,3-triazol-1-yl)phenyl)-2,5-dioxopiperazin-1-yl)-N-(2-(difluoromethyl)-2H-indazol-5-yl)-3-phenylpropanamide], the midpoint of inhibition in series [1], the IC50, lay at 19.1 nM. For the same compound, in series [2], the “CT2” value was found to be 11.3 µM. In series [3] (setting [4]), the Cmax amounted to 1170 ± 576 ng/mL, the AUC(0-t) is 4710 ± 2120 ng·h/mL and the half-life is 2.04 ± 1.08 h.
For the compound `COCCC(C(=O)Nc1ccc2nn(C)cc2c1)N1CC(=O)N(c2cc(Cl)ccc2-n2cc(Cl)nn2)CC1=O` (stereo not drawn) [Example 38, 2-(4-(5-Chloro-2-(4-chloro-1H-1,2,3-triazol-1-yl)phenyl)-2,5-dioxopiperazin-1-yl)-4-methoxy-N-(2-methyl-2H-indazol-5-yl)butanamide], in series [1], 61.4 nM corresponded to half-maximal inhibition (IC50). The “CT2” value in series [2] amounted to 19.0 µM. For the same compound, in series [3] (setting [4]), the Cmax amounted to 1360 ± 564 ng/mL, the AUC(0-t) turned out to be 3080 ± 281 ng·h/mL and the half-life is 2.63 ± 0.172 h.
With `Cn1cc2cc(NC(=O)C(Cc3ccc(F)cc3)N3CC(=O)N(c4cc(Cl)ccc4-n4cc(Cl)nn4)CC3=O)ccc2n1` (stereo not drawn) [Example 47, 2-(4-(5-Chloro-2-(4-chloro-1H-1,2,3-triazol-1-yl)phenyl)-2,5-dioxopiperazin-1-yl)-3-(4-fluorophenyl)-N-(2-methyl-2H-indazol-5-yl)propanamide], the IC50 – broadly, the concentration needed to halve the response being measured – in series [1] was determined as 45.2 nM. The “CT2” value in series [2] was determined as 9.3 µM. Further, in series [3] (setting [4]), the Cmax stood at 2860 ± 268 ng/mL, the AUC(0-t) amounted to 12200 ± 3190 ng·h/mL and the half-life is 2.13 ± 0.18 h.
As to `Cn1ccc(C[C@H](C(=O)Nc2ccc3nn(C)cc3c2)N2CC(=O)N(c3cc(Cl)ccc3-n3cc(Cl)nn3)CC2=O)n1` [Example 113, (R)-2-(4-(5-chloro-2-(4-chloro-1H-1,2,3-triazol-1-yl)phenyl)-2,5-dioxopiperazin-1-yl)-3-(1-methyl-1H-pyrazol-3-yl)-N-(2-methyl-2H-indazol-5-yl)propanamide], in series [3] (setting [5]), the AUC(0-t) was 552 ± 108 ng·h/mL and the half-life was 0.5 ± 0.0254 h. Moreover, the bioavailability in series [3] (po) was found to be 54.7 ± 46%. In series [3] (setting [4]), the Cmax worked out at 3420 ± 2350 ng/mL, the AUC(0-t) was 3020 ± 2540 ng·h/mL and the half-life is 1.38 ± 0.297 h.
Turning to `Cn1ccc(CC(C(=O)Nc2ccc3nn(C)cc3c2)N2CC(=O)N(c3cc(Cl)ccc3-n3cc(Cl)nn3)CC2=O)n1` (stereo not drawn) [Example 111, 2-(4-(5-chloro-2-(4-chloro-1H-1,2,3-triazol-1-yl)phenyl)-2,5-dioxopiperazin-1-yl)-3-(1-methyl-1H-pyrazol-3-yl)-N-(2-methyl-2H-indazol-5-yl)propanamide], in series [1], half-maximal inhibition (IC50) required 45.3 nM. The “CT2” value in series [2] stood at 19.6 µM. Also, in series [3] (setting [4]), the Cmax worked out at 1420 ± 703 ng/mL, the AUC(0-t) was found to be 2560 ± 409 ng·h/mL and the half-life is 2.37 ± 1.21 h.
